The target of experiment [1] is T1, Myeloperoxidase (MPO) (Homo sapiens, UniProt P05164). Kind of experiment: MPO fluorescence stopped flow assay. The following applies: for k−3: same fixed constants; for Akaike weight / ΔAICc: Dynafit 3 model discrimination; for best fitting slow binding inhibition model: Akaike information criterion based discrimination.
Experiment [2] has as its target T1, Myeloperoxidase (MPO). In words: SDS-PAGE analysis of inhibitor-mediated cleavage of MPO. In kind it is biochemical. The note with it: MPO 1.2 μM, ADHP 40 μM, inhibitor 0-25 mM, H2O2 20 μM, 10 min, room temperature.
Experiment [3] addresses T1, Myeloperoxidase (MPO). The note with it: for apparent kcat of MPO for ADHP in presence of inhibitor: Lineweaver-Burk.
Experiment [4] concerns the target T1, Myeloperoxidase (MPO). The note with it: MPO 23 nM pre-incubated with inhibitor 1 hr without H2O2, dialysis, then H2O2.
The mark [5] stands for this setting: 1 or 2-step slow tight-binding fit, DynaFit 3, fixed k+1 = 10 μM^−1s^−1, k−1 = 80 s^−1, k+2 = 224 s^−1, pH 5.6, 25°C.
Setting [6] is: 1 or 2-step slow tight-binding fit, DynaFit 3.
Setting [7] is: 2-step slow tight-binding fit, DynaFit 3.

The structures appear in SMILES notation. “Also recorded” adds a separate entry of the source. Where two headings read alike, the source gives them in different places.

Experimental findings from PMC4336777 (Archives of biochemistry and biophysics, 2014) are described below.

T1 sequence (P05164 165-273 limits assumed): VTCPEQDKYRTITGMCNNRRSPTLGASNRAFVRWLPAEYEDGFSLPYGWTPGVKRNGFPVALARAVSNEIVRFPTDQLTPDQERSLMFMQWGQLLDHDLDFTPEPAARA
T1 sequence (P05164 279-745 limits assumed): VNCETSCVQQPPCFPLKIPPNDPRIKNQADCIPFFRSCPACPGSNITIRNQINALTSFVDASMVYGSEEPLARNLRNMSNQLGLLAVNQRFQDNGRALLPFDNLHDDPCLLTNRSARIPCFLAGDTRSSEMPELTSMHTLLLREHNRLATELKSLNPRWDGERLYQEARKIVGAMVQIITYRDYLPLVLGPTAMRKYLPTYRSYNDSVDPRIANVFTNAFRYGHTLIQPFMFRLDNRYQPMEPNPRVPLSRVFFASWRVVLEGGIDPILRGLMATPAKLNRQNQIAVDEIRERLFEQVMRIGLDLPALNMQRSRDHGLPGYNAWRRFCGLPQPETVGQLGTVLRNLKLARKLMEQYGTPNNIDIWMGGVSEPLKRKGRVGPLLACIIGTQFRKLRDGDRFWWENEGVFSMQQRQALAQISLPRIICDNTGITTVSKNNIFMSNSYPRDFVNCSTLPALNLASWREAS

As for `NNC(=O)c1ccccc1N` [2-ABAH, 2-aminobenzoic acid hydrazide], on Myeloperoxidase (MPO) [1] (setting [5]), the “k+3” value was determined as 0.10 ± 0.0014 µM⁻¹ s⁻¹. Further, the “k−3” value at Myeloperoxidase (MPO) [1] (setting [6]) was found to be 0.026 ± 0.0003 s⁻¹. At Myeloperoxidase (MPO) [1] (1 step model), the Akaike weight is reported as 0.01127 and the ΔAICc came out at 8.9. For the same compound, on Myeloperoxidase (MPO) [1] (setting [7]), the “k+4” value is 0.0067 ± 0.0004 s⁻¹ and the “k−4” value came out at 0.0094 ± 0.002 s⁻¹. At Myeloperoxidase (MPO) [1] (2 step model), this compound showed an Akaike weight of 0.9887 and a ΔAICc of 0. Besides, at Myeloperoxidase (MPO) [1], the “best fitting slow binding inhibition model” value is “two-step slow binding inhibitor; also recorded: two-step mechanism”. Besides, the Ki on Myeloperoxidase (MPO) [1] (Ki* (overall inhibition constant, two-step model), two-step slow tight-binding model, Eq. 9) was found to be 160 nM. The compound also had a Ki on Myeloperoxidase (MPO) [1] (Ki, Ki = k−3/k+3, DynaFit 3) of 260 nM. Further, the “fold higher affinity inhibitor of Compound I as compared to isoniazid” value on Myeloperoxidase (MPO) [1] (from Ki* versus Ki of isoniazid) stood at 62 fold.

Take `CN(C)c1cccc(C(=O)NN)c1` [3-DMABAH, 3-(dimethylamino) benzoic acid hydrazide]: the Ki on Myeloperoxidase (MPO) [1] (Ki, Ki = k−3/k+3, DynaFit 3) was 560 nM.

With `NNC(=O)c1ccc(F)cc1` [4-FBAH, 4-fluorobenzoic acid hydrazide], at Myeloperoxidase (MPO) [1] (setting [5]), the “k+3” value is 0.0075 ± 4.93E-05 μM^−1s^−1. For the same compound, the “k−3” value at Myeloperoxidase (MPO) [1] (setting [6]) came to 0.0062 ± 0.0001 s⁻¹. At Myeloperoxidase (MPO) [1] (1 step model), this compound returned an Akaike weight of 0.9196 and a ΔAICc of 0. On Myeloperoxidase (MPO) [1] (2 step model), this compound returned an Akaike weight of 0.0804 and a ΔAICc of 4.9. Further, on Myeloperoxidase (MPO) [1] (Ki, Ki = k−3/k+3, DynaFit 3), the Ki was found to be 830 nM.

On to `NNC(=O)c1ccc([N+](=O)[O-])cc1` [4-NBAH, 4-nitrobenzoic acid hydrazide], for which the Ki on Myeloperoxidase (MPO) [1] (Ki, Ki = k−3/k+3, DynaFit 3) stood at 3700 nM.

Turning to `NNC(=O)c1ccc(C(F)(F)F)cc1` [4-TFMBAH, 4-(trifluoromethyl) benzoic acid hydrazide], on Myeloperoxidase (MPO) [1] (setting [5]), the “k+3” value stood at 0.0013 ± 1.36E-05 μM^−1s^−1. In addition, the “k−3” value at Myeloperoxidase (MPO) [1] (setting [6]) stood at 0.004 ± 0.0002 s⁻¹. On Myeloperoxidase (MPO) [1] (1 step model), this compound gave an Akaike weight of 0.909 and a ΔAICc of 0. On Myeloperoxidase (MPO) [1] (2 step model), this compound returned an Akaike weight of 0.09104 and a ΔAICc of 4.6. In addition, the “best fitting slow binding inhibition model” value on Myeloperoxidase (MPO) [1] is listed as “one-step slow binding inhibition model”. The same compound showed a Ki at Myeloperoxidase (MPO) [1] (Ki, Ki = k−3/k+3, DynaFit 3) of 3080 nM.

Turning to `CC(=O)N1c2ccc(O)cc2Oc2cc(O)ccc21` [ADHP, 10-acetyl-3,7-dihydroxyphenoxazine, reference compound], the kon on Myeloperoxidase (MPO) [1] (read-out: apparent second order rate constant (K^appon)) was found to be 2100 ± 200 M⁻¹ s⁻¹.

With `NNC(=O)c1ccccc1` [BAH, benzoic acid hydrazide], on Myeloperoxidase (MPO) [2], the “cleavage of MPO light chain-heme from heavy chain” value was “light chain of MPO is cleaved from MPO”. Besides, on Myeloperoxidase (MPO) [1] (setting [5]), the “k+3” value turned out to be 0.0098 ± 5.47E-05 μM^−1s^−1. For the same compound, on Myeloperoxidase (MPO) [1] (setting [6]), the “k−3” value turned out to be 0.0068 ± 9.5E-05 s^−1. At Myeloperoxidase (MPO) [1] (1 step model), this compound yielded an Akaike weight of 0.9969 and a ΔAICc of 0. On Myeloperoxidase (MPO) [1] (2 step model), this compound gave an Akaike weight of 0.00315 and a ΔAICc of 11.5. At Myeloperoxidase (MPO) [1] (Ki, Ki = k−3/k+3, DynaFit 3), this compound returned a Ki of 690 nM.

For the compound `OO` [H2O2, hydrogen peroxide], the Ki at Myeloperoxidase (MPO) [3] (read-out: apparent inhibitory rate constant Ki (substrate inhibition)) was 10.8 nM.

On to `NNC(=O)c1ccncc1` [Isoniazid, isonicotinylhydrazine, reference compound], for which, at Myeloperoxidase (MPO) [1] (setting [5]), the “k+3” value is 0.0011 ± 7.31E-06 μM^−1s^−1. Also, at Myeloperoxidase (MPO) [1] (setting [6]), the “k−3” value is 0.011 ± 0.0001 s⁻¹. Moreover, on Myeloperoxidase (MPO) [1] (1 step model), the Akaike weight is 0.8857 and the ΔAICc was determined as 0. At Myeloperoxidase (MPO) [1] (2 step model), this compound registered an Akaike weight of 0.1143 and a ΔAICc of 4.1. Besides, the “best fitting slow binding inhibition model” value on Myeloperoxidase (MPO) [1] is reported as “one-step slow binding inhibition model”. Also, on Myeloperoxidase (MPO) [1] (Ki, Ki = k−3/k+3, DynaFit 3), the Ki is 10000 nM.

`[N-]=[N+]=[N-].[Na+]` [NaN3, sodium azide, reference compound]: at Myeloperoxidase (MPO) [4], the “reversibility of inhibitor binding to MPO after equilibrium dialysis” value was “reversible”. In addition, the “type of inhibition with ADHP” value at Myeloperoxidase (MPO) [3] (Lineweaver-Burk plots, 0, 7.5, 30 μM NaN3) was “competitive inhibition or mixed-type inhibition”. In addition, the results for the “apparent kcat of MPO for ADHP in presence of inhibitor” value on Myeloperoxidase (MPO) [3] (NaN3 7.5 μM) and at Myeloperoxidase (MPO) [3] (NaN3 30 μM) were 161 s⁻¹ and 108 s⁻¹, respectively. Besides, the “fold reduction in apparent specificity constant (kcat/Km)” value at Myeloperoxidase (MPO) [3] (native system versus 30 μM NaN3) is recorded as 11 fold. For the same compound, the “k−3” value at Myeloperoxidase (MPO) [1] (setting [6]) was 0.156 ± 0.001 s⁻¹. Besides, the figures for the Akaike weight on Myeloperoxidase (MPO) [1] (1 step model) and at Myeloperoxidase (MPO) [1] (2 step model) were 0.8814 and 0.1186, respectively. The ΔAICc was determined as 0 at Myeloperoxidase (MPO) [1] (1 step model) and 4.0 at Myeloperoxidase (MPO) [1] (2 step model). Moreover, the “best fitting slow binding inhibition model” value on Myeloperoxidase (MPO) [1] is given as “one-step slow binding inhibition model”. On Myeloperoxidase (MPO) [1] (Ki = k−3/k+3, DynaFit 3), this compound displayed a Ki of 840 nM. Besides, at Myeloperoxidase (MPO) [1] (pH 5.6), the “k+3” value was determined as 0.185 ± 0.0018 µM⁻¹ s⁻¹.
